One experiment addresses T1, h-TGR5 (Homo sapiens, UniProt Q8TDU6).
T1 sequence (Q8TDU6 1-330): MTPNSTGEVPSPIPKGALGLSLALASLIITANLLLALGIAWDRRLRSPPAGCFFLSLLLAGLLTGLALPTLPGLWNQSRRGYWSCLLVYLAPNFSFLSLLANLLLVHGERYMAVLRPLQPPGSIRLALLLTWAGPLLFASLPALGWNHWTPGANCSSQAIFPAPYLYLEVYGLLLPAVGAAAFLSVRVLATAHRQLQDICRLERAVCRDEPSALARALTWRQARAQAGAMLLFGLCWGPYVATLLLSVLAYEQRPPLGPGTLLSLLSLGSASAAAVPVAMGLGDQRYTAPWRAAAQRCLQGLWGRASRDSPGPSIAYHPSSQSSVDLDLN
In words: TGR5 cAMP Assay using Cisbio cAMP Dynamic 2 htrf assay kit. The class given is cell-based. Particulars: hTGR5CRE-luc HEK 293 cells.

For another experiment, the target named is T2, human TGR5 (h-TGR5) (Homo sapiens, UniProt Q8TDU6).
T2 sequence (Q8TDU6 1-330): T1 sequence (Q8TDU6 1-330)
The experiment can be described thus: TGR5/CRE-Luciferase Assay. The class given is cell-based. Particulars: HEK 293 hTGR5/CRE-Luc cells, 6 hours incubation, read-out: CRE-Luc Agonist (EC50). In short, it runs like this:
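HEK 293 CRE-Luciferase cells stably expressing the receptor, plated in DMEM 18-20 h before assay, then exposed to serially diluted compounds (DMEM with 5% DMSO) for 6 h. Luciferase read-out after lysis; EC50 from dose-response.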

pEC50: −log10 of the molar value.

For orientation: pEC50 means −log10 of the EC50, conventionally taken in molar units.

With `COc1cc(C(C)(C)c2cnc(SCc3c(F)cc(S(=O)(=O)N(CCC[N+](C)(C)C)[C@H](C)CC(=O)O)cc3Cl)n2-c2ccc(F)cc2)ccc1Cl` [Compound 14aj, (R)-3-(N-(1-carboxypropan-2-yl)-3-chloro-4-((5-(2-(4-chloro-3-methoxyphenyl)-propan-2-yl)-1-(4-fluorophenyl)-1H-imidazol-2-ythio)methyl)-5-fluorophenyl-sulfonamido)-N,N,N-trimethylpropan-1-aminium 2,2,2-trifluoroacetate], the pEC50 on h-TGR5 and at human TGR5 (h-TGR5) was over 7.00 in each case.

Turning to `COc1cc(C(C)(C)c2cnc(SCc3c(F)cc(S(=O)(=O)N(CCC[N+](C)(C)C)[C@@H](C)C(=O)O)cc3F)n2-c2ccc(F)cc2)ccc1Cl` [Compound 14b, (S)-3-(N-(1-carboxyethyl)-4-((5-(2-(4-chloro-3-methoxyphenyl)propan-2-yl)-1-(4-fluorophenyl)-1H-imidazol-2-ylthio)methyl)-3,5-difluorophenylsulfonamido)-N,N,N-trimethylpropan-1-aminium 2,2,2-trifluoroacetate], the pEC50 on h-TGR5 and on human TGR5 (h-TGR5) was over 7.00 each time.

`COc1cc(C(C)(C)c2cnc(SCc3c(F)cc(S(=O)(=O)N(CCC[N+](C)(C)C)[C@H](C)C(=O)O)cc3Cl)n2-c2ccc(F)cc2)cc(F)c1F` [Compound 14c, (R)-3-(N-(1-carboxyethyl)-3-chloro-4-((5-(2-(3,4-difluoro-5-methoxyphenyl)propan-2-yl)-1-(4-fluorophenyl)-1H-imidazol-2-ylthio)methyl)-5-fluorophenylsulfonamido)-N,N,N-trimethylpropan-1-aminium 2,2,2-trifluoroacetate]: the pEC50 on h-TGR5 and at human TGR5 (h-TGR5) was over 7.00 in each case.

Take `COc1cc(C(C)(C)c2cnc(SCc3c(F)cc(S(=O)(=O)N(C)[C@@H](CCC[N+](C)(C)C)C(=O)O)cc3F)n2-c2ccc(F)cc2)ccc1F` [Compound 14e, (S)-4-carboxy-4-(3,5-difluoro-4-((5-(2-(4-luoro-3-methoxyphenyl)propan-2-yl)-1-(4-fluorophenyl)-1H-imidazol-2-ylthio)methyl)-N-methylphenylsulfonamido)-N,N,N-trimethylbutan-1-aminium chloride]: the pEC50 on h-TGR5 and at human TGR5 (h-TGR5) was over 7.00 throughout.

On to `COc1cc(C(C)(C)c2cnc(SCc3c(F)cc(S(=O)(=O)N(C)[C@@H](CCC[N+](C)(C)C)C(=O)O)cc3F)n2-c2ccc(F)cc2)cc(F)c1F` [Compound 14f, (S)-4-carboxy-4-(4-((5-(2-(3,4-difluoro-5-methoxyphenyl)propan-2-yl)-1-(4-fluorophenyl)-1H-imidazol-2-ylthio)methyl)-3,5-difluoro-N-methylphenylsulfonamido)-N,N-trimethylbutan-1-aminium chloride], for which the pEC50 on h-TGR5 and on human TGR5 (h-TGR5) was over 7.00 in each case.

For `COc1ccc(C(C)(C)c2cnc(SCc3c(F)cc(S(=O)(=O)N(C)[C@@H](CCC[N+](C)(C)C)C(=O)O)cc3F)n2-c2ccc(F)cc2)cc1Cl` [Compound 14g, (S)-4-carboxy-4-(4-((5-(2-(3-chloro-4-methoxyphenyl)propan-2-yl)-1-(4-fluorophenyl)-1H-imidazol-2-ylthio)methyl)-3,5-difluoro-N-methylphenylsulfonamido)-N,N,N-trimethylbutan-1-aminium chloride], the negative-log EC50 (pEC50) at h-TGR5 and on human TGR5 (h-TGR5) was over 7.00 in each case.

Take `CN([C@@H](CCC[N+](C)(C)C)C(=O)O)S(=O)(=O)c1cc(F)c(CSc2ncc(C(C)(C)c3ccc(F)c(Cl)c3)n2-c2ccc(F)cc2)c(F)c1` [Compound 14h, (S)-4-carboxy-4-(4-((5-(2-(3-chloro-4-fluorophenyl)propan-2-yl)-1-(4-fluorophenyl)-1H-imidazol-2-ylthio)methyl)-3,5-difluoro-N-methylphenylsulfonamido)-N,N,N-trimethylbutan-1-aminium chloride]: the negative logarithm of the EC50 (pEC50) on h-TGR5 and at human TGR5 (h-TGR5) was over 7.00 throughout.

For `COc1cc(C(C)(C)c2cnc(CCc3c(F)cc(S(=O)(=O)N(C)[C@@H](CCC[N+](C)(C)C)C(=O)O)cc3F)n2-c2ccc(F)cc2)ccc1Cl` [Compound 14i, (S)-4-carboxy-4-(4-(2-(5-(2-(4-chloro-3-methoxyphenyl)propan-2-yl)-1-(4-fluorophenyl)-1H-imidazol-2-yl)ethyl)-3,5-difluoro-N-methylphenylsulfonamido)-N,N,N-trimethylbutan-1-aminium chloride], the negative logarithm of the EC50 (pEC50) on h-TGR5 and at human TGR5 (h-TGR5) was over 7.00 in each case.

With `CCN(CCC[N+](C)(C)C)S(=O)(=O)c1cc(F)c(CSc2ncc(C(C)(C)c3ccc(F)c(OC)c3)n2-c2ccc(F)cc2)c(Cl)c1` [Compound 14j, 3-[{[3-chloro-5-fluoro-4-({[5-{1-[4-fluoro-3-(methyloxy)phenyl]-1-methylethyl}-1-(4-fluorophenyl)-1H-imidazol-2-yl]thio}methyl)phenyl]sulfonyl} (ethyl)amino]-N,N,N-trimethylpropan-1-aminium], the negative-log EC50 (pEC50) at h-TGR5 and at human TGR5 (h-TGR5) was over 7.00 throughout.

With `COc1cc(C(C)(C)c2cnc(SCc3c(F)cc(S(=O)(=O)N(CCC[N+](C)(C)C)C4CC4)cc3Cl)n2-c2ccc(F)cc2)ccc1F` [Compound 14k, 3-[{[3-chloro-5-fluoro-4-({[5-{1-[4-fluoro-3-(methyloxy)phenyl]-1-methylethyl}-1-(4-fluorophenyl)-1H-imidazol-2-yl]thio}methyl)phenyl]sulfonyl} (cyclopropyl)amino]-N,N,N-trimethylpropan-1-aminium], the negative-log EC50 (pEC50) on h-TGR5 and at human TGR5 (h-TGR5) was over 7.00 throughout.

With `COc1cc(C(C)(C)c2cnc(SCc3c(F)cc(S(=O)(=O)N(CCC[N+](C)(C)C)C(C)C)cc3Cl)n2-c2ccc(F)cc2)ccc1F` [Compound 14l, 3-[{[3-chloro-5-fluoro-4-({[5-{1-[4-fluoro-3-(methyloxy)phenyl]-1-methylethyl}-1-(4-fluorophenyl)-1H-imidazol-2-yl]thio}methyl)phenyl]sulfonyl} (1-methylethyl)amino]-N,N,N-trimethylpropan-1-aminium], the pEC50 on h-TGR5 and at human TGR5 (h-TGR5) was over 7.00 each time.

For the compound `CC[N+](C)(C)CCCN(C)S(=O)(=O)c1cc(F)c(CSc2ncc(C(C)(C)c3ccc(F)c(OC)c3)n2-c2ccc(F)cc2)c(Cl)c1` [Compound 14m, 3-[{[3-chloro-5-fluoro-4-({[5-{1-[4-fluoro-3-(methyloxy)phenyl]-1-methylethyl}-1-(4-fluorophenyl)-1H-imidazol-2-yl]thio}methyl)phenyl]sulfonyl} (methyl)amino]-N-ethyl-N,N-dimethylpropan-1-aminium], the pEC50 at h-TGR5 and on human TGR5 (h-TGR5) was over 7.00 each time.

Consider `COc1cc(C(C)(C)c2cnc(SCc3c(F)cc(S(=O)(=O)N(CCC[N+](C)(C)C)CC(=O)O)cc3Cl)n2-c2ccc(F)cc2)ccc1F` [Compound 14n, 3-[(carboxymethyl){[3-chloro-5-fluoro-4-({[5-{1-[4-fluoro-3-(methyloxy)phenyl]-1-methylethyl}-1-(4-fluorophenyl)-1H-imidazol-2-yl]thio}methyl)phenyl]sulfonyl}amino]-N,N,N-trimethylpropan-1-aminium], for which the pEC50 at h-TGR5 and on human TGR5 (h-TGR5) was over 7.00 throughout.

Turning to `COc1cc(C(C)(C)c2cnc(SCc3c(F)cc(S(=O)(=O)N(CCCC[N+](C)(C)C)CC(=O)O)cc3F)n2-c2ccc(F)cc2)ccc1Cl` [Compound 14o, 4-[(carboxymethyl){[4-({[5-{1-[4-chloro-3-(methyloxy)phenyl]-1-methylethyl}-1-(4-fluorophenyl)-1H-imidazol-2-yl]thio}methyl)-3,5-difluorophenyl]sulfonyl}amino]-N,N,N-trimethylbutan-1-aminium], the pEC50 at h-TGR5 and on human TGR5 (h-TGR5) was over 7.00 each time.

For `COc1cc(C(C)(C)c2cnc(SCc3c(F)cc(S(=O)(=O)N(CCC[N+](C)(C)C)[C@H](C(=O)O)C(C)C)cc3F)n2-c2ccc(F)cc2)ccc1Cl` [Compound 14p, 3-([(1S)-1-carboxy-2-methylpropyl]{[4-({[5-{1-[4-chloro-3-(methyloxy)phenyl]-1-methylethyl}-1-(4-fluorophenyl)-1H-imidazol-2-yl]thio}methyl)-3,5-difluorophenyl]sulfonyl}amino)-N,N,N-trimethylpropan-1-aminium], the pEC50 at h-TGR5 and at human TGR5 (h-TGR5) was over 7.00 each time.

Take `COc1cc(C(C)(C)c2cnc(SCc3c(F)cc(S(=O)(=O)N(CCC[N+](C)(C)C)[C@@H](C(=O)O)C(C)C)cc3F)n2-c2ccc(F)cc2)ccc1Cl` [Compound 14q, 3-([(1R)-1-carboxy-2-methylpropyl]{[4-({[5-{1-[4-chloro-3-(methyloxy)phenyl]-1-methylethyl}-1-(4-fluorophenyl)-1H-imidazol-2-yl]thio}methyl)-3,5-difluorophenyl]sulfonyl}amino)-N,N,N-trimethylpropan-1-aminium]: the pEC50 on h-TGR5 and at human TGR5 (h-TGR5) was over 7.00 each time.

For `COc1cc(C(C)(C)c2cnc(SCc3c(F)cc(S(=O)(=O)N(CCC[N+](C)(C)C)CCC(=O)O)cc3F)n2-c2ccc(F)cc2)ccc1Cl` [Compound 14r, 3-[(2-carboxyethyl){[4-({[5-{1-[4-chloro-3-(methyloxy)phenyl]-1-methylethyl}-1-(4-fluorophenyl)-1H-imidazol-2-yl]thio}methyl)-3,5-difluorophenyl]sulfonyl}amino]-N,N,N-trimethylpropan-1-aminium], the pEC50 on h-TGR5 and at human TGR5 (h-TGR5) was over 7.00 each time.

These data come from US8846739B2, “TGR5 agonists” (Exelixis Patent Company LLC, priority 2009, dated 2014).
